# Data reported in patent US7521458B2, “Spiropiperidylrifamycins for the treatment of mycobacterial infections” (priority 2004, dated 2009).
# Experiments:
# Format in all cases: cell-based
# [1] = system: Mycobacterium tuberculosis 3 strains assayed; test: Method of the proportions, Table 3 entry 9
# [2] = system: Mycobacterium tuberculosis 8 strains assayed; test: Method of the proportions, Table 3 entry 7
# [3] = system: Mycobacterium tuberculosis ATCC 35837; test: Method of the proportions, Table 3 entry 1
# [4] = system: Mycobacterium tuberculosis 1 strain assayed; test: Method of the proportions, Table 3 entry 10
# [5] = system: Mycobacterium tuberculosis 2 strains assayed; test: Method of the proportions, Table 3 entry 8
# [6] = system: Mycobacterium Kansasii 4 strains assayed; test: Method of the proportions, Table 3 entry 12
# [7] = system: Mycobacterium tuberculosis ATCC 35838; test: Method of the proportions, Table 3 entry 3
# [8] = system: Mycobacterium avium-intracellulare complex 5 strains assayed; test: Method of the proportions, Table 3 entry 11
# [9] = system: Mycobacterium tuberculosis ATCC 35820; test: Method of the proportions, Table 3 entry 2
# [10] = system: Mycobacterium tuberculosis 38 strains assayed; test: Method of the proportions, Table 3 entry 6
# [11] = system: Mycobacterium tuberculosis H37 RV; test: Method of the proportions, Table 3 entry 5
# [12] = system: Mycobacterium tuberculosis ATCC 35822; test: Method of the proportions, Table 3 entry 4
# [13] = concentration analysed 25 μg/ml
compound,measurement,setting,value
"NC(=O)c1cnccn1 [PZ, pyrazinamide]",Sensitivity of strains (s/R),[1]; [13],s (s means sensitive)
same,Sensitivity of strains (s/R),[2]; [13],R (R means resistent)
same,Sensitivity of strain (s/R),[3]; [13],s (s means sensitive)
same,Sensitivity of strain (s/R),[4]; [13],s (s means sensitive)
same,Sensitivity of strains (s/R),[5]; [13],s (s means sensitive)
same,Sensitivity of strains (s/R),[6]; [13],R (R means resistent)
same,Sensitivity of strain (s/R),[7]; [13],s (s means sensitive)
same,Sensitivity of strains (s/R),[8]; [13],R (R means resistent)
same,Sensitivity of strain (s/R),[9]; [13],s (s means sensitive)
same,Sensitivity of strains (s/R),[10]; [13],s (s means sensitive)
same,Sensitivity of strain (s/R),[11]; [13],s (s means sensitive)
same,Sensitivity of strain (s/R),[12]; [13],s (s means sensitive)
"4-deoxo-3,4-[(2R)-2-spiro(N-homoallyl-2,6-diphenyl-4-piperidil)-2,5-dihydro-1H-imidazo]rifamycin S [RFA 15M]",Sensitivity of strains (s/R),[1]; concentration analysed 1 μg/ml,s (s means sensitive)
same,Sensitivity of strains (s/R),[2]; concentration analysed 1 μg/ml,s (s means sensitive)
same,Sensitivity of strain (s/R),[3]; concentration analysed 1 μg/ml,R (R means resistent)
same,Sensitivity of strain (s/R),[4]; concentration analysed 1 μg/ml,s (s means sensitive)
same,Sensitivity of strains (s/R),[5]; concentration analysed 1 μg/ml,s (s means sensitive)
same,Sensitivity of strains (s/R),[6]; concentration analysed 1 μg/ml,s (s means sensitive)
same,Sensitivity of strain (s/R),[7]; concentration analysed 1 μg/ml,s (s means sensitive)
same,Sensitivity of strains (s/R),[8]; concentration analysed 1 μg/ml,s/R
same,Sensitivity of strain (s/R),[9]; concentration analysed 1 μg/ml,s (s means sensitive)
same,Sensitivity of strains (s/R),[10]; concentration analysed 1 μg/ml,s (s means sensitive)
same,Sensitivity of strain (s/R),[11]; concentration analysed 1 μg/ml,s (s means sensitive)
same,Sensitivity of strain (s/R),[12]; concentration analysed 1 μg/ml,s (s means sensitive)
